Source: patent US20240254087A1, “SELECTIVE, PARTIAL, AND ARRESTIN-BIASED 5-HT2A AGONISTS WITH UTILITY IN VARIOUS DISORDERS” (Saint Joseph's University, priority 2021, published 2024)
Read-outs that look alike come from different tables or passages of the source.

What was measured:
Parameters in all cases: expressed in transfected cells; host or cells: HEK293T, transient
5-HT2B = 5-HT2B (Homo sapiens, UniProt P41595); assay: BRET Gq dissociation, 5-HT2B; type: cell-based
Description: (§1) After at least 18-24 hours, transfected cells were plated in poly-lysine coated 96-well white clear bottom cell culture plates in DMEM containing 1% dialyzed FBS at a density of 25-40,000 cells in 200 μL per well and incubated overnight. After approximately 20-24 hours, media was decanted and cells were washed with 60 μL of drug buffer (1×HBSS, 20 mM HEPES, pH 7.4), followed by 60 μL of drug buffer and pre-incubated in a humidified atmosphere at 37° C. before receiving drug stimulation. Drug stimulation was induced by adding 30 μL of a solution of drug (3X) diluted in McCorvy buffer (1×HBSS, 20 mM HEPES, pH 7.4, supplemented with 0.3% BSA fatty acid free, 0.03% ascorbic acid) and plates were incubated at the indicated time and temperature. Fifteen minutes before reading, 10 μL of the RLuc substrate, either coelenterazine h for β-Arrestin recruitment BRET^1 or coelenterazine 400a for Gq dissociation BRET^2 (Prolume/Nanolight, 5 μM final concentration) was addedper well. Plates were read for luminescence at 485 nm and fluorescent eYFP emission at 530 nm for BRET^1 and at 400 nm and fluorescent GFP2 emission at 510 nm for BRET2 at 1 second per well using a Mithras LB940 (Berthold). The BRET ratios of fluorescence/luminescence were calculated per well and were plotted as a function of drug concentration using Graphpad Prism 8 (Graphpad Software Inc., San Diego, CA).

5-HT2C = molecular target: T1, 5-HT2C (Homo sapiens, UniProt P28335); assay: BRET Gq dissociation, 5-HT2C; type: cell-based; conditions: for Emax: read-out: 5-HT2C Gq Dissociation (BRET) EMAX ± SEM (%5-HT)
T1 sequence (P28335 33-458): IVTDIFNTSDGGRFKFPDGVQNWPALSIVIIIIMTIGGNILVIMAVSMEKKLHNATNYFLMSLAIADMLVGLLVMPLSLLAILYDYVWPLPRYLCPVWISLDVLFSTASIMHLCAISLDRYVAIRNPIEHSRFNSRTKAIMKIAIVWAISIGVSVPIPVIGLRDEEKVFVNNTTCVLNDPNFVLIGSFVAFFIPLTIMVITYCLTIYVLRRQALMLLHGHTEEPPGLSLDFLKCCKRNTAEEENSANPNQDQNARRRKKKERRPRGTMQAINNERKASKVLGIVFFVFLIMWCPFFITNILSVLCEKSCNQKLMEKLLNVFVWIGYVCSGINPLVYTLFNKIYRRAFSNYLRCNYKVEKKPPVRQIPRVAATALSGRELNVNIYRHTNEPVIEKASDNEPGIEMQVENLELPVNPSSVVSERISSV
Description: as §1, with “Plates were read for luminescence at 485 nm and fluorescent eYFP emission at 530 nm for BRET^1 and at 400 nm and fluorescent GFP2 emission at 510 nm for BRET2 at 1 second per well using a Mithras LB940 (Berthold).” left out

5-HT2A [1] = molecular target: T2, 5-HT2A (Homo sapiens, UniProt P28223); assay: cell-based; conditions: for Emax: read-out: 5-HT2A β-arrestin Emax (% 5-HT), BRET, mean ± SEM
Description: as §1, with “Plates were read for luminescence at 485 nm and fluorescent eYFP emission at 530 nm for BRET^1 and at 400 nm and fluorescent GFP2 emission at 510 nm for BRET2 at 1 second per well using a Mithras LB940 (Berthold).” left out

5-HT2A [2] = molecular target: T2, 5-HT2A; assay: cell-based; conditions: for Emax: read-out: 5-HT2A Gq Emax (% 5-HT), BRET, mean ± SEM
Description: as §1, with “Plates were read for luminescence at 485 nm and fluorescent eYFP emission at 530 nm for BRET^1 and at 400 nm and fluorescent GFP2 emission at 510 nm for BRET2 at 1 second per well using a Mithras LB940 (Berthold).” left out

[3] = read-out: 5-HT2C Gq Dissociation (BRET) pEC50 ± SEM (converted)
[4] = BRET, mean ± SEM, read-out: 5-HT2A β-arrestin recruitment pEC50 (converted)
[5] = BRET, mean ± SEM, read-out: 5-HT2A Gq dissociation pEC50 (converted)

Sequence of 5-HT2B (P41595 whole entry): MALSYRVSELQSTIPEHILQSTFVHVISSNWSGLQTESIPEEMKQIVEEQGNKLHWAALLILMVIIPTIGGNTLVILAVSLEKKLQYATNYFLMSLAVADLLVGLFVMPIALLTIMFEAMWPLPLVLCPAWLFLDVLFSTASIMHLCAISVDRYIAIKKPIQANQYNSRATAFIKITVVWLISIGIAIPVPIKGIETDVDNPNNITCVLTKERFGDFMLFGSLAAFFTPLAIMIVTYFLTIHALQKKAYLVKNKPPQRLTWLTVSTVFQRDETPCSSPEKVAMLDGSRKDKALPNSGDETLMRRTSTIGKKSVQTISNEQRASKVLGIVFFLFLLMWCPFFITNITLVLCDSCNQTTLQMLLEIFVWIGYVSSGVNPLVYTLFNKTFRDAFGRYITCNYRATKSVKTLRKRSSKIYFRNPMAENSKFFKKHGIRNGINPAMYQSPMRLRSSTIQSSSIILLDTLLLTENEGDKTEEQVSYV
T2 sequence (P28223 whole entry): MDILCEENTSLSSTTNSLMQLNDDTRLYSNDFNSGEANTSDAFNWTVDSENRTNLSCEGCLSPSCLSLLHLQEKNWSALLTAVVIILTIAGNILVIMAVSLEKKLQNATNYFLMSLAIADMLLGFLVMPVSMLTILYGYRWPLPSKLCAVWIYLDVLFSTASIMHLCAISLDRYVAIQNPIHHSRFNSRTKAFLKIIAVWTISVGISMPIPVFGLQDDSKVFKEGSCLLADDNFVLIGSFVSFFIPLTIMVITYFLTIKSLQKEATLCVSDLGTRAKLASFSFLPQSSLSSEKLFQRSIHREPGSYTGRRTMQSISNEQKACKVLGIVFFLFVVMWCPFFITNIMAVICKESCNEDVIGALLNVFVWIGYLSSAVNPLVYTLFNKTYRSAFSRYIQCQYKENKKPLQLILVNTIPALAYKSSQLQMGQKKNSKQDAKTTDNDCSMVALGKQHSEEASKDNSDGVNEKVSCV

COc1cc(Br)c(CCNCc2cccc(C)c2O)cc1OC [(43), 2-(((2-bromo-4,5-dimethoxyphenethyl)-amino)-methyl)-6-methylphenol]
5-HT2B Gq Dissociation (BRET) EMAX ± SEM (%5-HT) (5-HT2B): No activity | 5-HT2B Gq Dissociation (BRET) pEC50 ± SEM (5-HT2B): No activity | EC50 (5-HT2C): 20.9 nM | Emax (5-HT2C): 75.4 ± 2% | EC50 (5-HT2A [1]): 6.31 nM | Emax (5-HT2A [1]): 91.7 ± 3.4% | EC50 (5-HT2A [2]): 6.46 nM | Emax (5-HT2A [2]): 65.4 ± 1.4%

COc1cc(CCNCc2cccc(C)c2O)cc(OC)c1Br [(44)]
5-HT2B Gq Dissociation (BRET) EMAX ± SEM (%5-HT) (5-HT2B): No activity | 5-HT2B Gq Dissociation (BRET) pEC50 ± SEM (5-HT2B): No activity | Emax (5-HT2C): 80.2 ± 2.1% | EC50 (5-HT2C; [3]): 7.08 nM | EC50 (5-HT2A [1]; [4]): 11.2 nM | Emax (5-HT2A [1]): 66.1 ± 2.8% | EC50 (5-HT2A [2]; [5]): 12 nM | Emax (5-HT2A [2]): 70.4 ± 1.2%

COc1cc(Br)c(Br)c(OC)c1CCNCc1cccc(C)c1O [(45)]
5-HT2B Gq Dissociation (BRET) EMAX ± SEM (%5-HT) (5-HT2B): No activity | 5-HT2B Gq Dissociation (BRET) pEC50 ± SEM (5-HT2B): No activity | Emax (5-HT2C): 81 ± 2.1% | EC50 (5-HT2C; [3]): 1.51 nM | EC50 (5-HT2A [1]; [4]): 1.32 nM | Emax (5-HT2A [1]): 77.5 ± 6% | EC50 (5-HT2A [2]; [5]): 2.24 nM | Emax (5-HT2A [2]): 70.5 ± 2%

COc1cc(Cl)ccc1CC(C)NCc1cccc(C)c1O (stereo not shown) [(46)]
5-HT2B Gq Dissociation (BRET) EMAX ± SEM (%5-HT) (5-HT2B): No activity | 5-HT2B Gq Dissociation (BRET) pEC50 ± SEM (5-HT2B): No activity | Emax (5-HT2C): 95.5 ± 3.2% | EC50 (5-HT2C; [3]): 11.5 nM | EC50 (5-HT2A [1]; [4]): 1.12 nM | Emax (5-HT2A [1]): 72.9 ± 5.6% | EC50 (5-HT2A [2]; [5]): 4.79 nM | Emax (5-HT2A [2]): 67.8 ± 1.6%

COc1cc(CCNCc2cccc(C)c2O)ccc1Cl [(47)]
5-HT2B Gq Dissociation (BRET) EMAX ± SEM (%5-HT) (5-HT2B): No activity | 5-HT2B Gq Dissociation (BRET) pEC50 ± SEM (5-HT2B): No activity | Emax (5-HT2C): 98 ± 3.1% | EC50 (5-HT2C; [3]): 19.5 nM | EC50 (5-HT2A [1]; [4]): 6.92 nM | Emax (5-HT2A [1]): 80.5 ± 3.2% | EC50 (5-HT2A [2]; [5]): 30.9 nM | Emax (5-HT2A [2]): 66.9 ± 1.8%

COc1cc(OC)c(OC)cc1CCNCc1cccc(Br)c1O [(48)]
5-HT2B Gq Dissociation (BRET) EMAX ± SEM (%5-HT) (5-HT2B): No activity | 5-HT2B Gq Dissociation (BRET) pEC50 ± SEM (5-HT2B): No activity | Emax (5-HT2C): 69.2 ± 6.1% | EC50 (5-HT2C; [3]): 174 nM | EC50 (5-HT2A [1]; [4]): 8.13 nM | Emax (5-HT2A [1]): 85 ± 4.8% | EC50 (5-HT2A [2]; [5]): 20.4 nM | Emax (5-HT2A [2]): 53.6 ± 1.7%

COc1cc(OC)c(OC)cc1CCNCc1cccc(I)c1O [(49)]
5-HT2B Gq Dissociation (BRET) EMAX ± SEM (%5-HT) (5-HT2B): No activity | 5-HT2B Gq Dissociation (BRET) pEC50 ± SEM (5-HT2B): No activity | Emax (5-HT2C): 93.5 ± 3.1% | EC50 (5-HT2C; [3]): 26.9 nM | EC50 (5-HT2A [1]; [4]): 11.7 nM | Emax (5-HT2A [1]): 80.5 ± 5.5% | EC50 (5-HT2A [2]; [5]): 14.5 nM | Emax (5-HT2A [2]): 52.8 ± 1.5%

COc1cc(OC)c(OC)cc1CCNCc1cccc(C)c1C [(50)]
5-HT2B Gq Dissociation (BRET) EMAX ± SEM (%5-HT) (5-HT2B): No activity | 5-HT2B Gq Dissociation (BRET) pEC50 ± SEM (5-HT2B): No activity | Emax (5-HT2C): 30.4 ± 2.7% | EC50 (5-HT2C; [3]): 1.55 nM | EC50 (5-HT2A [1]; [4]): 5.75 nM | Emax (5-HT2A [1]): 73.9 ± 5.4% | EC50 (5-HT2A [2]; [5]): 3.47 nM | Emax (5-HT2A [2]): 23.6 ± 1%

COc1cc(OC)c(OC)cc1CCNCc1cccc2c1CCC2 [(51)]
5-HT2B Gq Dissociation (BRET) EMAX ± SEM (%5-HT) (5-HT2B): No activity | 5-HT2B Gq Dissociation (BRET) pEC50 ± SEM (5-HT2B): No activity | Emax (5-HT2C): 52.5 ± 5.2% | EC50 (5-HT2C; [3]): 93.3 nM | EC50 (5-HT2A [1]; [4]): 3.31 nM | Emax (5-HT2A [1]): 72.9 ± 4.2% | EC50 (5-HT2A [2]; [5]): 1.7 nM | Emax (5-HT2A [2]): 41.2 ± 1.9%

COc1cc(OC)c(OC)cc1CCNCc1cccc2c1CCCC2 [(52)]
5-HT2B Gq Dissociation (BRET) EMAX ± SEM (%5-HT) (5-HT2B): No activity | 5-HT2B Gq Dissociation (BRET) pEC50 ± SEM (5-HT2B): No activity | Emax (5-HT2C): 43.6 ± 3.8% | EC50 (5-HT2C; [3]): 34.7 nM | EC50 (5-HT2A [1]; [4]): 1.78 nM | Emax (5-HT2A [1]): 65 ± 4.9% | EC50 (5-HT2A [2]; [5]): 7.59 nM | Emax (5-HT2A [2]): 43.7 ± 1.1%

COc1cc(OC)c(OC)cc1CCNCc1cccc2cccnc12 [(54)]
5-HT2B Gq Dissociation (BRET) EMAX ± SEM (%5-HT) (5-HT2B): No activity | 5-HT2B Gq Dissociation (BRET) pEC50 ± SEM (5-HT2B): No activity | Emax (5-HT2C): 90.5 ± 3.1% | EC50 (5-HT2C; [3]): 14.8 nM | EC50 (5-HT2A [1]; [4]): 8.51 nM | Emax (5-HT2A [1]): 100 ± 3.5% | EC50 (5-HT2A [2]; [5]): 11.2 nM | Emax (5-HT2A [2]): 54.3 ± 1.5%

COc1cc(OC)c(OC)cc1CCNCc1cccc2cnccc12 [(56)]
5-HT2B Gq Dissociation (BRET) EMAX ± SEM (%5-HT) (5-HT2B): No activity | 5-HT2B Gq Dissociation (BRET) pEC50 ± SEM (5-HT2B): No activity | Emax (5-HT2C): 80.9 ± 3.4% | EC50 (5-HT2C; [3]): 126 nM | EC50 (5-HT2A [1]; [4]): 17.4 nM | Emax (5-HT2A [1]): 75.8 ± 8.3% | EC50 (5-HT2A [2]; [5]): 26.3 nM | Emax (5-HT2A [2]): 64.1 ± 1.5%

COc1cc(OC)c(OC)cc1CCNCc1cccc2ncccc12 [(57)]
5-HT2B Gq Dissociation (BRET) EMAX ± SEM (%5-HT) (5-HT2B): No activity | 5-HT2B Gq Dissociation (BRET) pEC50 ± SEM (5-HT2B): No activity | Emax (5-HT2C): 77.6 ± 3.2% | EC50 (5-HT2C; [3]): 200 nM | Emax (5-HT2A [1]): 92 ± 8.9% | Emax (5-HT2A [2]): 34.2 ± 4%

COc1cc(OC)c(OC)cc1CCNCc1ccccc1-c1ccco1 [(58)]
Emax (5-HT2B; read-out: 5-HT2B Gq Dissociation (BRET) EMAX ± SEM (%5-HT)): 37.6 ± 2% | EC50 (5-HT2B; read-out: 5-HT2B Gq Dissociation (BRET) pEC50 ± SEM (converted)): 3.09 nM | Emax (5-HT2C): 94 ± 4% | EC50 (5-HT2C; [3]): 14.1 nM | EC50 (5-HT2A [1]; [4]): 56.2 nM | Emax (5-HT2A [1]): 112 ± 6.2% | EC50 (5-HT2A [2]; [5]): 50.1 nM | Emax (5-HT2A [2]): 51.9 ± 2.2%

COc1cc(OC)c(OC)cc1CCNCc1ccccc1Oc1ccccc1 [(60)]
5-HT2B Gq Dissociation (BRET) EMAX ± SEM (%5-HT) (5-HT2B): No activity | 5-HT2B Gq Dissociation (BRET) pEC50 ± SEM (5-HT2B): No activity | Emax (5-HT2C): 113 ± 11.6% | EC50 (5-HT2C; [3]): 1700 nM | Emax (5-HT2A [1]): 117 ± 14.6% | Emax (5-HT2A [2]): 63.3 ± 3.5%

COc1cc(OC)c(OC)cc1CCNCc1cccc(-c2ccccc2)c1 [(62)]
5-HT2B Gq Dissociation (BRET) EMAX ± SEM (%5-HT) (5-HT2B): No activity | 5-HT2B Gq Dissociation (BRET) pEC50 ± SEM (5-HT2B): No activity | Emax (5-HT2C): 72.8 ± 5.2% | EC50 (5-HT2C; [3]): 219 nM | EC50 (5-HT2A [1]; [4]): 56.2 nM | Emax (5-HT2A [1]): 112 ± 6.2% | EC50 (5-HT2A [2]): 182 nM | Emax (5-HT2A [2]): 23.7 ± 2.1%
